Results as given in patent publication US10906873B2, “Substituted cyclic amides as herbicides” (FMC Corporation, priority 2015, dated 2021).

System: barnyardgrass (Echinochloa crus-galli)
Assay: Test A preemergence, barnyardgrass
Format: in vivo
Details: 125 g ai/ha, 0 to 100 scale
Procedure, shortened: (§1)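 Pre: seeds planted in loam/sand, directed soil spray. Post: 2–10 cm plants, 1–2 leaf. Formulation: non-phytotoxic solvent + surfactant. Greenhouse ~10 d; visual injury vs untreated, 0 = no effect, 100 = complete control.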

| Compound | Plant response rating, Barnyardgrass |
| --- | --- |
| O=C1NCC(/C=C/c2ccccc2F)C1C(=O)Nc1cccc(F)c1F (stereo not drawn) [Compound 28] | 50 |

Same assay, conditions: 500 g ai/ha, 0 to 100 scale

| Compound | Plant response rating, Barnyardgrass |
| --- | --- |
| O=C1NCC(/C=C/c2ccccc2F)C1C(=O)Nc1cccc(F)c1F (stereo not drawn) [Compound 28] | 90 |

System: kochia (Kochia scoparia)
Assay: Test A preemergence, kochia
Format: in vivo
Details: 125 g ai/ha, 0 to 100 scale
Procedure, shortened: as §1

| Compound | Plant response rating, Kochia |
| --- | --- |
| O=C1NCC(/C=C/c2ccccc2F)C1C(=O)Nc1cccc(F)c1F (stereo not drawn) [Compound 28] | 0 |

Same assay, conditions: 500 g ai/ha, 0 to 100 scale

| Compound | Plant response rating, Kochia |
| --- | --- |
| O=C1NCC(/C=C/c2ccccc2F)C1C(=O)Nc1cccc(F)c1F (stereo not drawn) [Compound 28] | 0 |

System: ragweed (common ragweed, Ambrosia elatior)
Assay: Test A preemergence, ragweed
Format: in vivo
Details: 125 g ai/ha, 0 to 100 scale
Procedure, shortened: as §1

| Compound | Plant response rating, Ragweed |
| --- | --- |
| O=C1NCC(/C=C/c2ccccc2F)C1C(=O)Nc1cccc(F)c1F (stereo not drawn) [Compound 28] | 0 |

Same assay, conditions: 500 g ai/ha, 0 to 100 scale

| Compound | Plant response rating, Ragweed |
| --- | --- |
| O=C1NCC(/C=C/c2ccccc2F)C1C(=O)Nc1cccc(F)c1F (stereo not drawn) [Compound 28] | 0 |

System: ryegrass, It. (Italian ryegrass, Lolium multiflorum)
Assay: Test A preemergence, ryegrass, It.
Format: in vivo
Details: 125 g ai/ha, 0 to 100 scale
Procedure, shortened: as §1

| Compound | Plant response rating, Ryegrass, It. |
| --- | --- |
| O=C1NCC(/C=C/c2ccccc2F)C1C(=O)Nc1cccc(F)c1F (stereo not drawn) [Compound 28] | 0 |

Same assay, conditions: 500 g ai/ha, 0 to 100 scale

| Compound | Plant response rating, Ryegrass, It. |
| --- | --- |
| O=C1NCC(/C=C/c2ccccc2F)C1C(=O)Nc1cccc(F)c1F (stereo not drawn) [Compound 28] | 0 |

System: foxtail, giant (giant foxtail, Setaria faberii)
Assay: Test A preemergence, foxtail, giant
Format: in vivo
Details: 125 g ai/ha, 0 to 100 scale
Procedure, shortened: as §1

| Compound | Plant response rating, Foxtail, Giant |
| --- | --- |
| O=C1NCC(/C=C/c2ccccc2F)C1C(=O)Nc1cccc(F)c1F (stereo not drawn) [Compound 28] | 50 |

Same assay, conditions: 500 g ai/ha, 0 to 100 scale

| Compound | Plant response rating, Foxtail, Giant |
| --- | --- |
| O=C1NCC(/C=C/c2ccccc2F)C1C(=O)Nc1cccc(F)c1F (stereo not drawn) [Compound 28] | 90 |

System: pigweed (Amaranthus retroflexus)
Assay: Test A preemergence, pigweed
Format: in vivo
Details: 125 g ai/ha, 0 to 100 scale
Procedure, shortened: as §1

| Compound | Plant response rating, Pigweed |
| --- | --- |
| O=C1NCC(/C=C/c2ccccc2F)C1C(=O)Nc1cccc(F)c1F (stereo not drawn) [Compound 28] | 0 |

Same assay, conditions: 500 g ai/ha, 0 to 100 scale

| Compound | Plant response rating, Pigweed |
| --- | --- |
| O=C1NCC(/C=C/c2ccccc2F)C1C(=O)Nc1cccc(F)c1F (stereo not drawn) [Compound 28] | 0 |

System: barnyardgrass (Echinochloa crus-galli)
Assay: Test A postemergence, barnyardgrass
Format: in vivo
Details: 125 g ai/ha, 0 to 100 scale
Procedure, shortened: as §1

| Compound | Plant response rating, Barnyardgrass |
| --- | --- |
| O=C1NCC(/C=C/c2ccccc2F)C1C(=O)Nc1cccc(F)c1F (stereo not drawn) [Compound 28] | 50 |

Same assay, conditions: 500 g ai/ha, 0 to 100 scale

| Compound | Plant response rating, Barnyardgrass |
| --- | --- |
| O=C1NCC(/C=C/c2ccccc2F)C1C(=O)Nc1cccc(F)c1F (stereo not drawn) [Compound 28] | 70 |

System: kochia (Kochia scoparia)
Assay: Test A postemergence, kochia
Format: in vivo
Details: 125 g ai/ha, 0 to 100 scale
Procedure, shortened: as §1

| Compound | Plant response rating, Kochia |
| --- | --- |
| O=C1NCC(/C=C/c2ccccc2F)C1C(=O)Nc1cccc(F)c1F (stereo not drawn) [Compound 28] | 0 |

Same assay, conditions: 500 g ai/ha, 0 to 100 scale

| Compound | Plant response rating, Kochia |
| --- | --- |
| O=C1NCC(/C=C/c2ccccc2F)C1C(=O)Nc1cccc(F)c1F (stereo not drawn) [Compound 28] | 0 |

System: ragweed (common ragweed, Ambrosia elatior)
Assay: Test A postemergence, ragweed
Format: in vivo
Details: 125 g ai/ha, 0 to 100 scale
Procedure, shortened: as §1

| Compound | Plant response rating, Ragweed |
| --- | --- |
| O=C1NCC(/C=C/c2ccccc2F)C1C(=O)Nc1cccc(F)c1F (stereo not drawn) [Compound 28] | 0 |

Same assay, conditions: 500 g ai/ha, 0 to 100 scale

| Compound | Plant response rating, Ragweed |
| --- | --- |
| O=C1NCC(/C=C/c2ccccc2F)C1C(=O)Nc1cccc(F)c1F (stereo not drawn) [Compound 28] | 0 |

System: ryegrass, It. (Italian ryegrass, Lolium multiflorum)
Assay: Test A postemergence, ryegrass, It.
Format: in vivo
Details: 125 g ai/ha, 0 to 100 scale
Procedure, shortened: as §1

| Compound | Plant response rating, Ryegrass, It. |
| --- | --- |
| O=C1NCC(/C=C/c2ccccc2F)C1C(=O)Nc1cccc(F)c1F (stereo not drawn) [Compound 28] | 0 |

Same assay, conditions: 500 g ai/ha, 0 to 100 scale

| Compound | Plant response rating, Ryegrass, It. |
| --- | --- |
| O=C1NCC(/C=C/c2ccccc2F)C1C(=O)Nc1cccc(F)c1F (stereo not drawn) [Compound 28] | 0 |

System: foxtail, giant (giant foxtail, Setaria faberii)
Assay: Test A postemergence, foxtail, giant
Format: in vivo
Details: 125 g ai/ha, 0 to 100 scale
Procedure, shortened: as §1

| Compound | Plant response rating, Foxtail, Giant |
| --- | --- |
| O=C1NCC(/C=C/c2ccccc2F)C1C(=O)Nc1cccc(F)c1F (stereo not drawn) [Compound 28] | 20 |

Same assay, conditions: 500 g ai/ha, 0 to 100 scale

| Compound | Plant response rating, Foxtail, Giant |
| --- | --- |
| O=C1NCC(/C=C/c2ccccc2F)C1C(=O)Nc1cccc(F)c1F (stereo not drawn) [Compound 28] | 50 |

System: wheat (Triticum aestivum)
Assay: Test A postemergence, wheat
Format: in vivo
Details: 125 g ai/ha, 0 to 100 scale
Procedure, shortened: as §1

| Compound | Plant response rating, Wheat |
| --- | --- |
| O=C1NCC(/C=C/c2ccccc2F)C1C(=O)Nc1cccc(F)c1F (stereo not drawn) [Compound 28] | 0 |

Same assay, conditions: 500 g ai/ha, 0 to 100 scale

| Compound | Plant response rating, Wheat |
| --- | --- |
| O=C1NCC(/C=C/c2ccccc2F)C1C(=O)Nc1cccc(F)c1F (stereo not drawn) [Compound 28] | 0 |

System: corn (Zea mays)
Assay: Test A postemergence, corn
Format: in vivo
Details: 125 g ai/ha, 0 to 100 scale
Procedure, shortened: as §1

| Compound | Plant response rating, Corn |
| --- | --- |
| O=C1NCC(/C=C/c2ccccc2F)C1C(=O)Nc1cccc(F)c1F (stereo not drawn) [Compound 28] | 0 |

Same assay, conditions: 500 g ai/ha, 0 to 100 scale

| Compound | Plant response rating, Corn |
| --- | --- |
| O=C1NCC(/C=C/c2ccccc2F)C1C(=O)Nc1cccc(F)c1F (stereo not drawn) [Compound 28] | 0 |

System: pigweed (Amaranthus retroflexus)
Assay: Test A postemergence, pigweed
Format: in vivo
Details: 125 g ai/ha, 0 to 100 scale
Procedure, shortened: as §1

| Compound | Plant response rating, Pigweed |
| --- | --- |
| O=C1NCC(/C=C/c2ccccc2F)C1C(=O)Nc1cccc(F)c1F (stereo not drawn) [Compound 28] | 0 |

Same assay, conditions: 500 g ai/ha, 0 to 100 scale

| Compound | Plant response rating, Pigweed |
| --- | --- |
| O=C1NCC(/C=C/c2ccccc2F)C1C(=O)Nc1cccc(F)c1F (stereo not drawn) [Compound 28] | 0 |

System: blackgrass (Alopecurus myosuroides)
Assay: Test A postemergence, blackgrass
Format: in vivo
Details: 125 g ai/ha, 0 to 100 scale
Procedure, shortened: as §1

| Compound | Plant response rating, Blackgrass |
| --- | --- |
| O=C1NCC(/C=C/c2ccccc2F)C1C(=O)Nc1cccc(F)c1F (stereo not drawn) [Compound 28] | 0 |

Same assay, conditions: 500 g ai/ha, 0 to 100 scale

| Compound | Plant response rating, Blackgrass |
| --- | --- |
| O=C1NCC(/C=C/c2ccccc2F)C1C(=O)Nc1cccc(F)c1F (stereo not drawn) [Compound 28] | 0 |

System: galium (catchweed bedstraw, Galium aparine)
Assay: Test A postemergence, galium
Format: in vivo
Details: 125 g ai/ha, 0 to 100 scale
Procedure, shortened: as §1

| Compound | Plant response rating, Galium |
| --- | --- |
| O=C1NCC(/C=C/c2ccccc2F)C1C(=O)Nc1cccc(F)c1F (stereo not drawn) [Compound 28] | 0 |

Same assay, conditions: 500 g ai/ha, 0 to 100 scale

| Compound | Plant response rating, Galium |
| --- | --- |
| O=C1NCC(/C=C/c2ccccc2F)C1C(=O)Nc1cccc(F)c1F (stereo not drawn) [Compound 28] | 20 |

System: barnyardgrass (Echinochloa crus-galli)
Assay: Test B flooded paddy test, barnyardgrass
Format: in vivo
Details: Flood, 250 g ai/ha; scale of 0 to 100 where 0 is no effect and 100 is complete control; 13 to 15 d
Procedure, shortened: (§2)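 Ratings use a 0-100 visual scale, where 100 is complete control, and compare treated plants with controls after 13 to 15 d of greenhouse growth. Compound went straight into paddy water kept 3 cm over the soil surface, applied to seedlings at the 2-leaf stage.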

| Compound | Plant response rating, Barnyardgrass |
| --- | --- |
| O=C1NCC(/C=C/c2ccccc2F)C1C(=O)Nc1cccc(F)c1F (stereo not drawn) [Compound 28] | 90 |

System: ducksalad (Heteranthera limosa)
Assay: Test B flooded paddy test, ducksalad
Format: in vivo
Details: Flood, 250 g ai/ha; scale of 0 to 100 where 0 is no effect and 100 is complete control; 13 to 15 d
Procedure, shortened: as §2

| Compound | Plant response rating, Ducksalad |
| --- | --- |
| O=C1NCC(/C=C/c2ccccc2F)C1C(=O)Nc1cccc(F)c1F (stereo not drawn) [Compound 28] | 90 |

System: rice (Oryza sativa)
Assay: Test B flooded paddy test, rice
Format: in vivo
Details: Flood, 250 g ai/ha; scale of 0 to 100 where 0 is no effect and 100 is complete control; 13 to 15 d
Procedure, shortened: as §2

| Compound | Plant response rating, Rice |
| --- | --- |
| O=C1NCC(/C=C/c2ccccc2F)C1C(=O)Nc1cccc(F)c1F (stereo not drawn) [Compound 28] | 10 |

System: sedge, umbrella (small-flower umbrella sedge, Cyperus difformis)
Assay: Test B flooded paddy test, sedge, umbrella
Format: in vivo
Details: Flood, 250 g ai/ha; scale of 0 to 100 where 0 is no effect and 100 is complete control; 13 to 15 d
Procedure, shortened: as §2

| Compound | Plant response rating, Sedge, Umbrella |
| --- | --- |
| O=C1NCC(/C=C/c2ccccc2F)C1C(=O)Nc1cccc(F)c1F (stereo not drawn) [Compound 28] | 50 |
